Measured values reported in ChEMBL document CHEMBL5241097, “Synthetically-tailored and nature-derived dual COX-2/5-LOX inhibitors: Structural aspects and SAR” (Eur J Med Chem, 2021).
Values after ≈ are worked out from the molar mass of the structure shown.

Experiments:
[1] = test system: DLD-1; experiment: Anticancer activity against human DLD-1 cells assessed as cell growth inhibition incubated for 3 hrs by Sulforhodamine B assay; type: functional, cell-based; settings: DLD-1, 3 h
[2] = test system: MCF7; experiment: Anticancer activity against human MCF7 cells assessed as cell growth inhibition incubated for 3 hrs by Sulforhodamine B assay; type: functional, cell-based; settings: MCF7, 3 h
[3] = target: Prostaglandin G/H synthase 1 (Homo sapiens, UniProt P23219); experiment: Inhibition of COX-1 (unknown origin) by enzyme immune assay
Chain of Prostaglandin G/H synthase 1 (P23219 whole entry): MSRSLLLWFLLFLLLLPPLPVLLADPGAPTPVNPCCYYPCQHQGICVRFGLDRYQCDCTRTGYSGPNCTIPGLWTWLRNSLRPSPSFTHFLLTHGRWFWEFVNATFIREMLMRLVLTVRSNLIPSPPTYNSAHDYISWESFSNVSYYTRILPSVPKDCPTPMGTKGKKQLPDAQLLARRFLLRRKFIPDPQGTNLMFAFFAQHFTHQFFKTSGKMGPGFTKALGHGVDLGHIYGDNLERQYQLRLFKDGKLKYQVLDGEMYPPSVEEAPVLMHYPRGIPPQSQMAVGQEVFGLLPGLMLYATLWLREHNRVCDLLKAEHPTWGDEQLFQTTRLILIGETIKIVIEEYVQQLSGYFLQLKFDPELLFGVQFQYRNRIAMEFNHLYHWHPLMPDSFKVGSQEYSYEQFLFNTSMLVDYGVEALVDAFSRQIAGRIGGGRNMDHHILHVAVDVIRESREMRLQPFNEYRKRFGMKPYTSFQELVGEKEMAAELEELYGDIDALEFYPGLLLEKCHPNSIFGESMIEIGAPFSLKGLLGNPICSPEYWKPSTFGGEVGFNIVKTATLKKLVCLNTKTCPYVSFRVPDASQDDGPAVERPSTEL

[4] = target: T1, Prostaglandin G/H synthase 2 (Homo sapiens, UniProt P35354); experiment: Inhibition of COX-2 (unknown origin) by enzyme immune assay
T1 sequence (P35354 whole entry): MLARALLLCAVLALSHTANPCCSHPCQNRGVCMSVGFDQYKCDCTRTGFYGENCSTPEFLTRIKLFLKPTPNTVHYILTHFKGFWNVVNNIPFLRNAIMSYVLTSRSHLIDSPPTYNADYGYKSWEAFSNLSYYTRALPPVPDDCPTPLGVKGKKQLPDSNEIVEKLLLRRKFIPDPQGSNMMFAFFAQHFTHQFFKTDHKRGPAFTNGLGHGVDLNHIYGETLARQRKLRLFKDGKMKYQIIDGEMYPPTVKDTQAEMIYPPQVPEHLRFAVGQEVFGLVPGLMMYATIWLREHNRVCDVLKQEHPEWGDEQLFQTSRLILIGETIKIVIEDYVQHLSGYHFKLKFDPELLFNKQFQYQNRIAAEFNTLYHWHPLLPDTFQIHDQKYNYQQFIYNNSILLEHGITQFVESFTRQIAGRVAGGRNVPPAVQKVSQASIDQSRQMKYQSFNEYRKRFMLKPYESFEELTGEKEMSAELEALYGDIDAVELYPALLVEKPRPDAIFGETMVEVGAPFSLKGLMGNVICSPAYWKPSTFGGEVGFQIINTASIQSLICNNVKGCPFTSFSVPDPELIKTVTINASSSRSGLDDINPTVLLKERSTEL

[5] = target: T2, Polyunsaturated fatty acid 5-lipoxygenase (Homo sapiens, UniProt P09917); experiment: Inhibition of human 5-LOX by colorimetric assay
T2 sequence (P09917 whole entry): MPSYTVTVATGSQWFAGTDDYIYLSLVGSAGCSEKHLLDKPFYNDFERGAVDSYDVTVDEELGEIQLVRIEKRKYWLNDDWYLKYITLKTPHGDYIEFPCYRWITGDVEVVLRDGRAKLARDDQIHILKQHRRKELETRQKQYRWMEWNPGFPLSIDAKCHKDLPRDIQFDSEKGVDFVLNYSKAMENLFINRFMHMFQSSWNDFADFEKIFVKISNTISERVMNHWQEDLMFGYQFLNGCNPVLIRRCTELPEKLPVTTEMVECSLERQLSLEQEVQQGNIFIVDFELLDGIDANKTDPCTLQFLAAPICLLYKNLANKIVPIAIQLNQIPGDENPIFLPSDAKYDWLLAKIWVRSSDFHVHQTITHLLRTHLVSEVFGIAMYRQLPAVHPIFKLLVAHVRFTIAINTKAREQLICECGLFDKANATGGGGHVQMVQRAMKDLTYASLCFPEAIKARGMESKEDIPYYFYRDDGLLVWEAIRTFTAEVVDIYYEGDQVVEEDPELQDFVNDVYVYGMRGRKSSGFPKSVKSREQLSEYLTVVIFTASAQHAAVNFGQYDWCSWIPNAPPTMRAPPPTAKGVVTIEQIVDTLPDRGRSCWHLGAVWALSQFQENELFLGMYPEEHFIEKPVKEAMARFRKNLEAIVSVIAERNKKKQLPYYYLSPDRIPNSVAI

[6] = target: T1, Prostaglandin G/H synthase 2; experiment: Inhibition of COX-2 (unknown origin) by colorimetric method

IC50 [1] | IC50 [2] | IC50 [3] | IC50 [4] | IC50 [5] | IC50 [6] | Structure (SMILES)
52.5 µg/mL (≈ 238 µM) | 82 µg/mL (≈ 372 µM) | 395 µM | 399 µM |  |  | C=C1CC[C@@H]2[C@H](CC2(C)C)C(=C)CC[C@H]1O
 |  |  |  | 0.02 µM | 0.25 µM | O=C1/C(=C/c2ccc(Cl)cc2)N=C(c2ccccc2)N1c1ccc(-c2nc3ccccc3o2)cc1
